For this test, the target named is T1, PDE4B (human recombinant) (Homo sapiens, UniProt Q07343).
T1 construct: made in house
T1 sequence (Q07343 1-564 isoform Q07343-2): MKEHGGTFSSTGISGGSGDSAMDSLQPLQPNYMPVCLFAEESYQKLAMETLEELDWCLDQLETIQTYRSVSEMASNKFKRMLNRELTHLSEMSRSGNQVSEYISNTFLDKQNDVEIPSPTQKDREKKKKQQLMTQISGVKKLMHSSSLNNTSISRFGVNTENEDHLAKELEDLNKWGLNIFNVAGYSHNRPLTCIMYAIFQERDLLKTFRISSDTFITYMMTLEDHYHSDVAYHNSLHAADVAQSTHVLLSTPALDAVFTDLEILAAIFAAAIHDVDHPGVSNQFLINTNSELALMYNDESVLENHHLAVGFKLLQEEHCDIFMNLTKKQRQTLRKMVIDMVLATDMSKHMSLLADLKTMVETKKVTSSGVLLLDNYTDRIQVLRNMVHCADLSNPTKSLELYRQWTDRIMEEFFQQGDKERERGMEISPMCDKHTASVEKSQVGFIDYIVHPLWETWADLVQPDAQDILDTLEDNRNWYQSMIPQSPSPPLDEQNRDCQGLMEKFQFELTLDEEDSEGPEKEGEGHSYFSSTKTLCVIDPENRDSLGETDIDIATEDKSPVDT
As to the kind of experiment: Inhibition of PDE4B activity: radioactive SPA or IMAP Fluorescence Polarisation (FP) assay. Type of test: biochemical. The conditions noted are these: PDE4B inhibitory activity, one reading or average of ca. 2-6 readings, read-out: PDE4B pIC50 (± about 0.5) (converted). From the text: Human recombinant PDE4B, in particular the 2B splice variant thereof (HSPDE4B2B), is disclosed in WO 94/20079 and also M. M. McLaughlin et al., “A low Km, rolipram-sensitive, cAMP-specific phosphodiesterase from human brain: cloning and expression of cDNA, biochemical characterisation of recombinant protein, and tissue distribution of mRNA”, J. Biol. Chem., 1993, 268, 6470-6476. For example, in Example 1 of WO 94/20079, human recombinant PDE4B is described as being expressed in the PDE-deficient yeast Saccharomyces cerevisiae strain GL62, e.g. after induction by addition of 150 uM CuSO4, and 100,000×g supernatant fractions of yeast cell lysates are described for use in the harvesting of PDE4B enzyme.
The ability of compounds to inhibit catalytic activity at PDE4B or 4D (human recombinant), PDE3 (from bovine aorta), PDE5 (human recombinant) or PDE6 (from bovine retina) was determined by Scintillation Proximity Assay (SPA) in 96-well format. Test compounds (preferably as a solution in DMSO, e.g. 0.5 to 1 microlitre (ul) volume) were preincubated at ambient temperature (room temperature, e.g. 19-23° C.) in Wallac Isoplates (code 1450-514) with PDE enzyme in 50 mM Tris-HCl buffer pH 7.5, 8.3 mM MgCl2, 1.7 mM EGTA, 0.05% (w/v) bovine serum albumin for 10-30 minutes (usually 30 minutes). The enzyme concentration was adjusted so that no more than 20% hydrolysis of the substrate defined below occurred in control wells without compound, during the incubation. For the PDE3, PDE4B and PDE4D assays, [5′,8-^3H]Adenosine 3′,5′-cyclic phosphate (Amersham Pharmacia Biotech, code TRK.559; or Amersham Biosciences UK Ltd, Pollards Wood, Chalfont St Giles, Buckinghamshire HP8 4SP, UK) was added to give 0.05 uCi per well and ˜10 nM final concentration. For the PDE5 and PDE6 assays, [8-^3H]Guanosine 3′,5′-cyclic phosphate (Amersham Pharmacia Biotech, code TRK.392) was added to give 0.05 uCi per well and ˜36 nM final concentration. Plates, e.g. containing approx. 100 ul volume of assay mixture, were mixed on an orbital shaker for 5 minutes and incubated at ambient temperature for 1 hour. Phosphodiesterase SPA beads (Amersham Pharmacia Biotech, code RPNQ 0150) were added ([…] per well) to terminate the assay. Plates were sealed and shaken and allowed to stand at ambient temperature for 35 minutes to 1 hour (preferably 35 minutes) to allow the beads to settle. Bound radioactive product was measured using a WALLAC TRILUX 1450 Microbeta scintillation counter. For inhibition curves, 10 concentrations (1.5 nM-30 uM) of each compound were assayed. Curves were analysed using ActivityBase and XLfit (ID. Business Solutions Limited, 2 Ocean Court, Surrey Research Park, Guildford, Surrey GU2 7QB, United Kindgom) Results were expressed as pIC50 values.
The ability of compounds to inhibit catalytic activity at PDE4B (human recombinant) or PDE4D (human recombinant) was determined by IMAP Fluorescence Polarisation ([…]) assay (IMAP Explorer kit, available from Molecular Devices Corporation, Sunnydale, Calif., USA; Molecular Devices code: R^8062) in 384-well format. The IMAP FP assay is able to measure PDE activity in an homogenous, non-radioactive assay format. The FP assay uses the ability of immobilised trivalent metal cations, coated onto nanoparticles (tiny beads), to bind the phosphate group of Fl-AMP that is produced on the hydrolysis of fluorescein-labelled (Fl) cyclic adenosine mono-phosphate (Fl-cAMP) to the non-cyclic Fl-AMP form. […] Binding of Fl-AMP product to the beads (coated with the immobilised trivalent cations) slows the rotation of the bound Fl-AMP and leads to an increase in the fluorescence polarisation ratio of parallel to perpendicular light. Inhibition of the PDE reduces/inhibits this signal increase. […]
As to `CCn1ncc2c(NC3CCOCC3)c(C(=O)NCc3ccc(I)cc3)cnc21` [Example 630], the IC50 was 0.1 to 6.31 nM.

Consider `CCn1ncc2c(NC3CCC(=NO)CC3)c(C(=O)NCc3ccc(C)c(Cl)c3)cnc21` (stereo not shown) [Example 683, N-[(3-Chloro-4-methylphenyl)methyl]-1-ethyl-4-{[4-(hydroxyimino)cyclohexyl]amino}-1H-pyrazolo[3,4-b]pyridine-5-carboxamide], for which the IC50 is 0.1 to 6.31 nM. In the case of `CCn1ncc2c(NC3CCOCC3)c(C(=O)NCc3ccc(C)cc3C)cnc21` [Example 584, N-[(2,4-Dimethylphenyl)methyl]-1-ethyl-4-(tetrahydro-2H-pyran-4-ylamino)-1H-pyrazolo[3,4-b]pyridine-5-carboxamide] it was 0.1 to 6.31 nM.

As to `Cn1ncc2c(NC3CCOCC3)c(C(=O)NCc3ccccc3)cnc21` [Example 63, N-Benzyl-1-methyl-4-(tetrahydro-2H-pyran-4-ylamino)-1H-pyrazolo[3,4-b]pyridine-5-carboxamide], the IC50 is 126 nM. As to `CCn1ncc2c(NC3CCOCC3)c(C(=O)NCc3ccc(Cl)cc3C)cnc21` [Example 494, N-[(4-Chloro-2-methylphenyl)methyl]-1-ethyl-4-(tetrahydro-2H-pyran-4-ylamino)-1H-pyrazolo[3,4-b]pyridine-5-carboxamide], the IC50 is 0.1 to 6.31 nM. In the case of `CCn1ncc2c(NC3CCC(=NO)CC3)c(C(=O)NCc3ccc(OC(F)F)cc3)cnc21` (stereo not shown) [Example 685, N-({4-[(Difluoromethyl)oxy]phenyl}methyl)-1-ethyl-4-{[4-(hydroxyimino)cyclohexyl]amino}-1H-pyrazolo[3,4-b]pyridine-5-carboxamide] it was 0.1 to 6.31 nM. In the case of `CCn1ncc2c(NC3CCCC(O)C3)c(C(=O)NCc3ccccc3)cnc21` (stereo not shown) [Example 198, N-Benzyl-1-ethyl-4-[(3-hydroxycyclohexyl)amino]-1H-pyrazolo[3,4-b]pyridine-5-carboxamide] it was 3.16 nM.

`CCn1ncc2c(NC3CCC(=NO)CC3)c(C(=O)NCc3ccc(Cl)cc3C)cnc21` (stereo not shown) [Example 684, N-[(4-Chloro-2-methylphenyl)methyl]-1-ethyl-4-{[4-(hydroxyimino)cyclohexyl]amino}-1H-pyrazolo[3,4-b]pyridine-5-carboxamide]: the IC50 was 0.1 to 6.31 nM. For `CCn1ncc2c(NC3CCC(=O)CC3)c(C(=O)NCc3ccc(C)c(C)c3)cnc21` [Example 261, N-[(3,4-Dimethylphenyl)methyl]-1-ethyl-4-[(4-oxocyclohexyl)amino]-1H-pyrazolo[3,4-b]pyridine-5-carboxamide], the IC50 was 0.1 to 6.31 nM.

Regarding `CCn1ncc2c(NC3CCC(=O)CC3)c(C(=O)NC3Cc4ccccc4C3)cnc21` [Example 271, N-(2,3-Dihydro-1H-inden-2-yl)-1-ethyl-4-[(4-oxocyclohexyl)amino]-1H-pyrazolo[3,4-b]pyridine-5-carboxamide], the IC50 is 0.1 to 6.31 nM. In the case of `CCC(CC)CNC(=O)c1cnc2c(cnn2CC)c1NC1CCOCC1` [Example 44, 1-Ethyl-N-(2-ethylbutyl)-4-(tetrahydro-2H-pyran-4-ylamino)-1H-pyrazolo[3,4-b]pyridine-5-carboxamide] it was 12.6 to 100 nM; in that of `CCn1ncc2c(NC3CCCC3)c(C(=O)NCc3ccccc3)cnc21` [Example 39, N-Benzyl-4-(cyclopentylamino)-1-ethyl-1H-pyrazolo[3,4-b]pyridine-5-carboxamide], 12.6 to 100 nM. As for `CCOC(=O)c1cnc2c(cnn2CC)c1NC1CCOCC1` [Example 3, Ethyl 1-ethyl-4-(tetrahydro-2H-pyran-4-ylamino)-1H-pyrazolo[3,4-b]pyridine-5-carboxylate], the figure is 15.8 nM. In the case of `CCCn1ncc2c(NC3CCOCC3)c(C(=O)NCc3ccc(S(C)(=O)=O)cc3)cnc21` [Example 187, N-[4-(Methylsulfonyl)benzyl]-1-n-propyl-4-(tetrahydro-2H-pyran-4-ylamino)-1H-pyrazolo[3,4-b]pyridine-5-carboxamide] it was 12.6 to 100 nM; in that of `CCn1ncc2c(NC3CCC(=O)CC3)c(C(=O)NCc3cccc(Cl)c3Cl)cnc21` [Example 677, N-[(2,3-Dichlorophenyl)methyl]-1-ethyl-4-[(4-oxocyclohexyl)amino]-1H-pyrazolo[3,4-b]pyridine-5-carboxamide], 0.1 to 6.31 nM; in that of `CCn1ncc2c(NC3CCC(=O)CC3)c(C(=O)NCc3ccc(C(F)(F)F)cc3)cnc21` [Example 267, 1-Ethyl-4-[(4-oxocyclohexyl)amino]-N-{[4-(trifluoromethyl)phenyl]methyl}-1H-pyrazolo[3,4-b]pyridine-5-carboxamide], 0.1 to 6.31 nM. Regarding `CCn1ncc2c(NC3CCOCC3)c(C(=O)NCc3ccc(C)c(Cl)c3)cnc21` [Example 493, N-[(3-Chloro-4-methylphenyl)methyl]-1-ethyl-4-(tetrahydro-2H-pyran-4-ylamino)-1H-pyrazolo[3,4-b]pyridine-5-carboxamide], the IC50 was 0.1 to 6.31 nM. In the case of `CCn1ncc2c(NC3CCC(=NO)CC3)c(C(=O)NCc3ccc(C)cc3C)cnc21` (stereo not shown) [Example 680, N-[(2,4-Dimethylphenyl)methyl]-1-ethyl-4-{[4-(hydroxyimino)cyclohexyl]amino}-1H-pyrazolo[3,4-b]pyridine-5-carboxamide] it was 0.1 to 6.31 nM; in that of `CCn1ncc2c(NC3CCOCC3)c(C(=O)NCc3ccccn3)cnc21` [Example 600, 1-Ethyl-N-(2-pyridinylmethyl)-4-(tetrahydro-2H-pyran-4-ylamino)-1H-pyrazolo[3,4-b]pyridine-5-carboxamide], 12.6 to 100 nM. Regarding `CCOC(=O)c1cnc2c(cnn2CC)c1NC1CCSC1` (racemic) [Example 11, Ethyl 1-ethyl-4-(tetrahydrothien-3-ylamino)-1H-pyrazolo[3,4-b]pyridine-5-carboxylate], the IC50 was 39.8 nM. As for `CCC(CC)CNC(=O)c1cnc2c(cnn2CC)c1NC1CCCCC1` [Example 43, 4-(Cyclohexylamino)-1-ethyl-N-(2-ethylbutyl)-1H-pyrazolo[3,4-b]pyridine-5-carboxamide], the figure is 12.6 to 100 nM.

As for `CCn1ncc2c(NC3CCOCC3)c(C(=O)NCc3cnn(C)c3)cnc21` [Example 178, 1-Ethyl-N-[(1-methyl-1H-pyrazo1-4-yl)methyl]-4-(tetrahydro-2H-pyran-4-ylamino)-1H-pyrazolo[3,4-b]pyridine-5-carboxamide], the IC50 was 12.6 to 100 nM. As for `CCn1ncc2c(NC3CCOCC3)c(C(=O)NCc3c(C)cc(Cl)cc3Cl)cnc21` [Example 644, N-[(2,4-Dichloro-6-methylphenyl)methyl]-1-ethyl-4-(tetrahydro-2H-pyran-4-ylamino)-1H-pyrazolo[3,4-b]pyridine-5-carboxamide], the figure is 0.1 to 6.31 nM; as for `CCn1ncc2c(NC3CCCCC3)c(C(=O)NCc3ccc(OC)cc3)cnc21` [Example 431, 4-(Cyclohexylamino)-1-ethyl-N-{[4-(methyloxy)phenyl]methyl}-1H-pyrazolo[3,4-b]pyridine-5-carboxamide], 0.1 to 6.31 nM. In the case of `CCn1ncc2c(NC3CCOCC3)c(C(=O)NCc3cccc(Cl)c3Cl)cnc21` [Example 626, N-[(2,3-Dichlorophenyl)methyl]-1-ethyl-4-(tetrahydro-2H-pyran-4-ylamino)-1H-pyrazolo[3,4-b]pyridine-5-carboxamide] it was 0.1 to 6.31 nM.

Source of the values: US20060089375A1, “Pyrazolo[3,4-b] pyridine compounds, and their use as phosphodiesterase inhibitors” (priority 2002, published 2006).
